{"source": "patent US20180271470A1", "about": "“METHODS FOR QUANTIFYING PANCREATIC BETA CELL FUNCTION AND MASS PROPERTIES WITH RADIOMANGANESE POSITRON EMISSION TOMOGRAPHY” (Wisconsin Alumni Research Foundation, priority 2017, published 2018)", "key": {"[1]": {"conditions": "dogs, previous studies; cited from earlier work"}, "[2]": {"molecular_target": "type 2 vesicular transporter (VMAT2) (Homo sapiens, UniProt Q05940)", "sequence (Q05940 whole entry, species assumed)": "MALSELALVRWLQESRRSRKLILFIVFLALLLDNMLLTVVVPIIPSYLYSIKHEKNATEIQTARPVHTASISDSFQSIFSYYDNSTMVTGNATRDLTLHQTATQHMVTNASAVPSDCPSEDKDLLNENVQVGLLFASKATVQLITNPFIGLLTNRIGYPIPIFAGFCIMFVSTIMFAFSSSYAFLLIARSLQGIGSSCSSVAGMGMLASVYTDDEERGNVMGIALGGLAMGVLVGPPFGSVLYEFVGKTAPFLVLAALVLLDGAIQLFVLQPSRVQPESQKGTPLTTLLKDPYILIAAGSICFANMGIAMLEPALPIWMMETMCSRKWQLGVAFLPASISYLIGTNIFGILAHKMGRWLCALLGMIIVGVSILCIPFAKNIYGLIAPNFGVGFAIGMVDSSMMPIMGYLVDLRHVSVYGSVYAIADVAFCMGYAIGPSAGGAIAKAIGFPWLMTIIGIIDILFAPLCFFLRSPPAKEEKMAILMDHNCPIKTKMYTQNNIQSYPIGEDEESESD", "conditions": "cited from earlier work"}, "[3]": {"conditions": "primate models; cited from earlier work"}, "[4]": {"experiment": "^52Mn^2+ PET in pre-type 2 diabetic ob/ob and lean C57BL/6J mice", "type": "in vivo", "source_text": "Given the altered glucose metabolism in obese mice, we compared the pancreatic uptake of ^52Mn^2+ in lean (wild-type) and obese (ob/ob) mice on the C57BL/6J background. For PET imaging, 0.74 MBq (20 μCi) of ^52Mn^2+ was IV injected into obese mice or lean controls one hour prior to PET scan acquisition. Subsequent ^52Mn^2+ accumulation in the pancreas and other organs of interest was quantified."}, "[5]": {"experiment": "Static PET imaging of ^52Mn^2+ biodistribution in normal mice", "type": "in vivo, ICR mice", "conditions": "healthy mice, IV, peaked within minutes following administration"}, "[6]": {"experiment": "^52Mn^2+ PET and biodistribution in STZ type-1 diabetes model", "type": "in vivo, ICR mice", "experimental": "Type 1 diabetes was induced in female ICR mice via a single IP injection of 180 mg/kg streptozotocin (STZ; MP Biomedical, LLC, Santa Ana, Calif.), a toxin that selectively destroys pancreatic beta cell. The injectable STZ solution (12.5 mg/mL) was prepared freshly in phosphate buffered saline (PBS). The weight of each mouse was measured daily, and blood glucose levels were recorded every other day with a glucometer (TRUEresult, Trividia Health Inc., Fort Lauderdale, Fla.) using blood samples collected from the tail vein. Mice were considered diabetic after two consecutive blood glucose readings above 250 mg/dL and were used for PET imaging studies one week after the injection of STZ. To evaluate ^52Mn^2+ pancreatic uptake on diabetic mice, 0.74 MBq (20 μCi) of activity were administered IV and static PET images recorded one hour after administration of the tracer. Ex vivo biodistribution was carried out following PET acquisition."}, "[7]": {"experiment": "Ex vivo ^52Mn^2+ biodistribution by gamma counting after last PET scan", "type": "in vivo", "conditions": "ICR mice, ex vivo gamma counting 13 days after injection", "experimental": "Ex vivo biodistribution studies were performed in all groups of mice in order to validate the results of PET imaging and obtain a more complete biodistribution profile of ^52Mn^2+. Following the last imaging time point, mice were euthanized by C02 asphyxiation and the organs of interest were removed, wet-weighed, and counted on an automated gamma-counter (Wizard 2480, Perkin Elmer). The tissue uptake of ^52Mn^2+ was reported as SUV (mean±SD)."}, "[8]": {"system": "isolated ob/ob mouse islets", "experiment": "Uptake of ^52Mn^2+ in isolated islets under stimulatory or inhibitory conditions", "type": "cell-based", "conditions": "low glucose (1 mM), 370 kBq ^52Mn^2+", "experimental": "Mouse pancreatic islets were isolated by collagenase digestion. Briefly, mice were placed under shallow anesthesia and sacrificed via cervical dislocation. The mouse common bile duct was cannulized and 3-5 mL of an ice-cold solution containing type XI collagenase (0.5 mg/mL; Sigma Aldrich, St. Louis, Mo.) and bovine serum albumin (BSA; 0.2 mg/mL; Sigma Aldrich, St. Louis, Mo.) in Hank's balanced salt solution (HBSS; Invitrogen, Carlsbad, Calif.) was injected into the mouse pancreas. After inflation, the pancreas was removed, placed in a glass vial containing 5 mL of the collagenase solution, and incubated in a shaking water bath at 37° C. Samples were digested for approximately 30 min after which the digests were centrifuged at 50×g for 2 min and islet pellets were washed three times with 30 mL of an ice-cold BSA (0.2 mg/mL) in HBSS solution. The pellet was resuspended and islets handpicked into 35 mm petri dishes. Following isolation, islets were placed in RPMI1640 media supplemented with penicillin (100 U/mL; Invitrogen), streptomycin (100 μg/mL; Invitrogen), and FBS [10% (wt/vol); Sigma] and incubated overnight at 37° C. in a 5% CO2 atmosphere.\nThe uptake of ^52Mn^2+ by murine islets of Langerhans was determined under several stimulatory or inhibitory conditions. Batches of 50 islets were transferred into 0.45 μm filtered bottom 1 mL centrifuge vials (Thermo Fisher Scientific, Grand Island, N.Y.), 500 μL of Krebs-Ringer buffer (KRB: 118 mM NaCl, 5.4 mM KCl, 2.4 mM CaCl, 1.2 mM MgSO4, 1 mM […], 20 mM HEPES; pH 7.4) containing a low glucose concentration (1 mM D-glucose) were added and the islets incubated for 30 min at 37° C. After removing the supernatant following centrifugation at 50×g for 5 min, 250 μL of KRB containing glucose, diazoxide (50 μM; Tocris Biosciences, Bristol, UK), or tolbutamide (250 μM; Selleckchem, Houston, Tex.) were added, and the vials were spiked with 370 kBq (10 μCi) of ^52Mn^2+. After 15 min of incubation, the solutions were filtered and islets were washed three times with KRB. The ^52Mn^2+ radioactivity in the islet pellets were measured in an automated gamma counter (Perkin Elmer)."}, "[9]": {"experiment": "Static PET imaging of ^52Mn^2+ biodistribution in normal mice", "type": "in vivo, ICR mice", "experimental": "The acquisition of PET images was performed in the Inveon μPET/μCT scanner (Siemens Preclinical Solutions, Knoxville, Tenn.). To study the long-term biodistribution and clearance of ^52Mn^2+ in the mouse body, approximately 3.7 MBq (100 μCi) of ^52Mn^2+ was injected intravenously (IV) in female ICR mice. […] Before each scan, mice were anesthetized with isoflurane (4% induction; 1% maintenance) and placed in the scanner in prone position. 30×10^6-40×10^6 coincidence events per mouse static PET scans were acquired (time window, 3.432 ns; energy window, 350-650 keV) and the PET images were reconstructed in Inveon Acquisition Workplace (Siemens Preclinical Solutions, Knoxville, Tenn.) workstation using a non-scatter-corrected three-dimensional Ordered Subset Expectation […]/Maximum a Posteriori (OSEM3D/MAP) algorithm. Region-of-interest (ROI) analysis was performed after organs were manually delineated on the PET images. Tissue uptake values were reported as standardized uptake value (SUV), which is normalized to whole body radiomanganese concentration."}, "[10]": {"experiment": "Dynamic PET of ^52Mn^2+ (rapid IV bolus or 30 min IV infusion) under isoflurane", "type": "in vivo, mice", "experimental": "To acquire dynamic PET scans, mice were anesthetized with isoflurane and the lateral tail vein was catheterized. Simultaneous with the administration of approximately 1.7 MBq (50 μCi) of ^52Mn^2+ as a fast IV bolus, one-hour scans were recorded and list-mode files were binned into 46 frames (12×5 s, 6×10 s, 6×30 s, 10×60 s, 6×150 s, 6×300 s) and the images reconstructed using a non-scatter-corrected OSEM3D/MAP algorithm. In another study, 1.7 MBq (50 μCi) of ^52Mn^2 was continuously infused with a syringe pump (Kd Scientific, Model 780100) over a period of 30 min, starting at the beginning of the PET scan. List-mode files were framed into 30×2 min frames and reconstructed using the above-mentioned algorithm."}, "[11]": {"conditions": "ICR mice, IV ^52Mn^2+, awake at injection, static PET 1 h post injection"}, "[12]": {"conditions": "rapid IV bolus, isoflurane throughout, 1 h post injection"}}, "note": "Where “and” joins values, the source holds several entries; their conditions need not be identical. Equal entries are not always repeated.", "data": [{"compound": "[54Mn]", "note": "[Mn-54]", "values": [{"measurement": "blood clearance", "setting": "[1]", "value": "~0.8", "unit": "min"}]}, {"compound": "COc1cc2c(cc1OCCCF)CCN1CC(CC(C)C)C(O)CC21", "note": "(stereo not drawn) [FP-(+)-DTBZ]", "values": [{"measurement": "affinity for VMAT2", "setting": "[2]", "value": "high affinity"}]}, {"compound": "COc1cc2c(cc1O[11CH3])CCN1CC(CC(C)C)C(O)CC21", "note": "(stereo not drawn) [[^11C]-DTBZ, [^11C]-Dihydrotetrabenazine]", "values": [{"measurement": "pancreatic uptake", "setting": "[3]", "value": "very low"}]}, {"compound": "[52Mn+2]", "note": "[^52Mn^2+]", "values": [{"measurement": "^52Mn^2+ uptake in liver, lean mice", "setting": "[4]; lean C57BL/6J, 1 h", "value": "3.40±0.73", "unit": "SUV"}, {"measurement": "^52Mn^2+ uptake in salivary gland, lean mice", "setting": "[4]; lean C57BL/6J, 1 h", "value": "3.11±1.05", "unit": "SUV"}, {"measurement": "^52Mn^2+ pancreatic uptake, lean mice", "setting": "[4]; lean C57BL/6J, PET 1 h after administration", "value": "4.89±0.68", "unit": "SUV"}, {"measurement": "^52Mn^2+ uptake in liver, obese mice", "setting": "[4]; ob/ob C57BL/6J, 1 h", "value": "3.68±0.25", "unit": "SUV"}, {"measurement": "^52Mn^2+ uptake in salivary gland, obese mice", "setting": "[4]; ob/ob C57BL/6J, 1 h", "value": "2.40±0.20", "unit": "SUV"}, {"measurement": "^52Mn^2+ pancreatic uptake, ob/ob mice", "setting": "[4]; pre-type 2 diabetic ob/ob C57BL/6J, PET 1 h after administration", "value": "7.27±1.03", "unit": "SUV"}, {"measurement": "^52Mn^2+ uptake in the pancreas at peak", "setting": "[5]", "value": "5-6 SUV"}, {"measurement": "^52Mn^2+ uptake in pancreas of diabetic mice (PET ROI)", "setting": "[6]; STZ (180 mg/kg) diabetic ICR mice, 1 h post injection, normal mice 5.13±0.38 SUV", "value": "2.04±0.81", "unit": "SUV"}, {"measurement": "decrease in pancreatic accumulation of ^52Mn^2+, ex vivo biodistribution", "setting": "[6]; STZ-diabetic vs normal ICR mice", "value": "> 58", "unit": "%"}, {"measurement": "reduction in the pancreatic accumulation of ^52Mn^2+", "setting": "[6]; STZ-induced type-1 diabetes model vs normal", "value": "~60", "unit": "%"}, {"measurement": "^52Mn^2+ uptake in other organs (brain, lungs, bones, intestines, stomach, spleen)", "setting": "[7]", "value": "less than 0.5 SUV"}, {"measurement": "^52Mn^2+ uptake by islets under resting conditions", "setting": "[8]", "value": "readily taken up"}, {"measurement": "^52Mn^2+ uptake in heart (PET ROI)", "setting": "[9]; [11]", "value": "2.11±0.20", "unit": "SUV"}, {"measurement": "^52Mn^2+ uptake in kidneys (PET ROI)", "setting": "[9]; [11]", "value": "5.13±0.02", "unit": "SUV"}, {"measurement": "^52Mn^2+ uptake in liver (PET ROI)", "setting": "[9]; [11]", "value": "3.27±0.36 SUV and 3.27±0.34 SUV"}, {"measurement": "^52Mn^2+ uptake in muscle (PET ROI)", "setting": "[9]; [11]", "value": "0.38±0.03", "unit": "SUV"}, {"measurement": "^52Mn^2+ uptake in pancreas (PET ROI)", "setting": "[9]; [11]", "value": "5.13±0.38 SUV and 5.13±0.36 SUV"}, {"measurement": "^52Mn^2+ uptake in salivary glands (PET ROI)", "setting": "[9]; [11]", "value": "2.30±0.26", "unit": "SUV"}, {"measurement": "^52Mn^2+ uptake in salivary gland at subsequent time points", "setting": "[9]; ICR mice, longitudinal PET after 1 h up to 13 days post injection", "value": "around 3 SUV"}, {"measurement": "pancreas clearance half-life of ^52Mn^2+", "setting": "[9]; healthy mice, IV", "value": "approximately 8 days"}, {"measurement": "^52Mn^2+ uptake in pancreas, continuous infusion", "setting": "[10]; IV infusion over 30 min, isoflurane", "value": "3.44±0.69", "unit": "SUV"}, {"measurement": "^52Mn^2+ uptake in kidney, continuous infusion", "setting": "[10]; IV infusion over 30 min, isoflurane, 1 h post injection", "value": "5.14±1.21", "unit": "SUV"}, {"measurement": "reduction in pancreatic uptake, dynamic vs static PET", "setting": "[10]; rapid IV bolus under isoflurane vs awake injection, 1 h post injection", "value": "~50", "unit": "%"}, {"measurement": "time until uptake stabilized in organs of interest", "setting": "[10]; rapid IV bolus, dynamic PET", "value": "within five minutes"}, {"measurement": "blood circulation half-life", "setting": "[10]; rapid IV bolus, from myocardial TAC of dynamic PET", "value": "10.7 ± 3.5", "unit": "s"}, {"measurement": "^52Mn^2+ uptake in heart, dynamic PET", "setting": "[10]; [12]", "value": "2.60±0.41", "unit": "SUV"}, {"measurement": "^52Mn^2+ uptake in kidneys, dynamic PET", "setting": "[10]; [12]", "value": "7.81±0.51", "unit": "SUV"}, {"measurement": "^52Mn^2+ uptake in liver, dynamic PET", "setting": "[10]; [12]", "value": "5.16±1.46", "unit": "SUV"}, {"measurement": "^52Mn^2+ uptake in muscle, dynamic PET", "setting": "[10]; [12]", "value": "0.16±0.02", "unit": "SUV"}, {"measurement": "^52Mn^2+ uptake in pancreas, dynamic PET", "setting": "[10]; [12]", "value": "2.74±0.59", "unit": "SUV"}]}]}
